From article PMC7999182, “Interaction of Remdesivir with Clinically Relevant Hepatic Drug Uptake Transporters” (Pharmaceutics, 2021) come the findings set out here.

The target of this data set is T1, OATP1B1 (Homo sapiens, UniProt Q9Y6L6).
T1 construct: expressed in transfected cells
T1 sequence (Q9Y6L6 1-691): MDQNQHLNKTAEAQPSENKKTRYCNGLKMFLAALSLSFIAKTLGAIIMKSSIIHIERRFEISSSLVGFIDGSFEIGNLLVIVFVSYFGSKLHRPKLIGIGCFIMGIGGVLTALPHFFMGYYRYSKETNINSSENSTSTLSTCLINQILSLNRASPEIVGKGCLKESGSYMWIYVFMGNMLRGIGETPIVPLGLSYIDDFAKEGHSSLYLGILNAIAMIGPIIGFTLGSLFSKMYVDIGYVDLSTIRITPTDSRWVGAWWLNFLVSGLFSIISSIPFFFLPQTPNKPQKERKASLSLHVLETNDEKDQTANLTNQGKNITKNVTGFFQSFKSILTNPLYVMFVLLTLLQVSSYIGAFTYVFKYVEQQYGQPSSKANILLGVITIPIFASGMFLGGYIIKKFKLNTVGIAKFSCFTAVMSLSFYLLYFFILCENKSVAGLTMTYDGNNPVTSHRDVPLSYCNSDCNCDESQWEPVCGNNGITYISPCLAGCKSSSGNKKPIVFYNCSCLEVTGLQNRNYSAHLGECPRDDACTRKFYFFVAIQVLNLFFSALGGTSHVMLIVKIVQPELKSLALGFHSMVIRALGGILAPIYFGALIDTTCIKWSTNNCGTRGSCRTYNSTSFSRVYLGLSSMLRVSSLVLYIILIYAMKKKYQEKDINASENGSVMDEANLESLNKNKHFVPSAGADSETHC
The experiment in a line: Inhibition of OATP1B1-mediated BSP uptake. The format is cell-based. The text has this: Generation, cultivation and characterization of human embryonic kidney (HEK) cells stably expressing OATP1B1 refseq (=OATP1B1*1a), OATP1B1*1b, OATP1B1*5 and OATP1B1*15 [18], OATP1B3 [19], OATP2B1 [13] and OCT1 [20] have been described previously. OATP1B1 cells were cultivated in minimal essential medium (Life Technologies, Paisley, UK) and OATP1B3, OATP2B1 and OCT1 cells were cultivated in Dulbecco’s modified Eagle medium (Sigma, Darmstadt, Germany). Cultivation media were supplemented with 10% fetal calf serum, 100 U/mL penicillin and 100 µg/mL streptomycin. Cells were grown at 37 °C and 5% CO2. Functionality of the cells was confirmed by measuring uptake of prototypic substrates (see Section 2.3 and supplementary material).
Prototypic substrate uptake was performed as described previously. For this, uptake solutions contained the respective substrate with tracer amounts of radiolabeled substrate. In case of inhibition studies, uptake solutions additionally contained different concentrations of remdesivir. […] Cells were then lysed with 0.2% sodium dodecyl sulfate and intracellular radioactivity was measured by liquid scintillation counting (Tricarb2800, PerkinElmer Life Sciences GmbH, Rodgau, Germany or Hidex 300SL TDCR liquid scintillation counter, Turku, Finland). […]

Molecules are shown by their SMILES.

In the case of `CCC(CC)COC(=O)[C@H](C)N[P@](=O)(OC[C@H]1O[C@@](C#N)(c2ccc3c(N)ncnn23)[C@H](O)[C@@H]1O)Oc1ccccc1` [Remdesivir], the “Effect on prototypic substrate uptake” value (0.05 µM BSP, 10 min uptake, different remdesivir concentrations) was “significant concentration-dependent inhibitory effect”. The “Transporter inhibition at 10 µM” value (10 µM remdesivir, BSP as substrate) is on record as “inhibition”.
